Data set [1] concerns SYK dependent basophil degranulation (CD63 surface expression on basophils in whole blood). The data set can be described thus: CD63-assay (cellular assay for SYK-inhibition) in whole blood. It is filed as cell-based. The procedure:
In this assay, IgE raised against dinitrophenol (DNP) is incubated in whole blood where it binds to the FcεR1 on basophils. […] CD63 normally resides on the intracellular granule membrane within basophils, which upon degranulation, is then expressed on the surface where it can be detected by flow cytometry. Surface expression of CD63 correlates extremely well with the release of histamine from basophils. The CD63 assay has previously been validated as a clinical target engagement biomarker in the Fostamatinib SYK program (Braselmann et al, J. Pharm. Exp. Therap. 319:998-1008, 2006). Heparinized whole blood is mixed gently (vortex mixer) and […] per test aliquoted into a 96 well plate. Anti-DNP (1 mg/ml) is diluted 1:100 with PBS/0.1% HSA to 10 μg/ml (final concentration: 1 μg/mL). Pre-dilute DNP/BSA (5 mg/ml) to a concentration of 60 ng/ml with washing solution. Compounds: […] Reagents are provided from the Basotest® kit. Incubate 10 μl of 10 μg/ml anti DNP and 10 μl of compound with 100 μl whole blood in a 37° C. pre-warmed water bath. After 30 minutes, 20 μl of STIMULATION BUFFER is added to the whole blood samples and vortexed gently. Incubate the samples for 10 min at 37° C. in a water bath. 100 μl of DNP/BSA is added per test to the whole blood. Add 100 μl of the WASHING SOLUTION to a further test tube as a negative control. Add 100 μl of DNP/BSA (final 30 ng/ml) in the compound tubes. All tubes are mixed once more. The samples are incubated for 20 min at 37° C. in a water bath. Stop degranulation by incubating the samples on ice for 5 min. Add 20 μl of STAINING REAGENT to each tube. Vortex and incubate the tubes for 20 min in an ice bath, covered to prevent exposure to light. The whole blood samples are lysed and fixed with 2 ml of pre-warmed (room temperature) 1×LYSING SOLUTION. Vortex and incubate for 10 min at room temperature. Spin down cells (5 min, 250×g, 4° C.). Discard the supernatant. Add 3 ml of WASHING SOLUTION to the tubes. Centrifuge the tubes (5 min, 250×g, 4° C.). Aspirate the supernatant. Add 200 μl WASHING SOLUTION to the cell pellet, vortex. Incubate the tubes in a covered ice bath until analysis. Cells are analysed by flow cytometry using the blue-green excitation light (488 nm argon-ion laser). Acquire data by using fluorescence triggering in the FL2 channel (PE) to gate on basophilic granulocytes expressing high amounts of IgE. This live gating reduces the amount of data and saves memory capacity. Acquire at least 500 basophils per sample. For data evaluation and calculation, the measurement of the negative control (unstimulated blood) was set as 100% control and the measurement of the positive control (DNP/anti-DNP stimulated blood) was set as 0% control. Based on these values the % value for the measurement of each substance concentration was calculated, a concentration-effect curve fitted and an EC50 value calculated using GraphPad Prism version 6.01 for Windows. The EC50 value was calculated using a nonlinear fitting (log(inhibitor) vs. response—variable slope). Normally, the % control values calculated are between 0% and 100% values but may also occur outside these limits in individual cases based on variability or compound characteristics.

Another data set concerns human hepatocytes. As to the kind of experiment: Human hepatocyte stability test. It is filed as in vitro ADME. To be noted: human hepatocyte suspension, percent of hepatic blood flow. The protocol:
A more comprehensive way to measure the metabolic stability of a compound of the instant invention than microsomal stability (section 5.6) is the human hepatocyte stability test as described below. Herein the metabolic degradation for the compound in question is performed in a human hepatocyte suspension.
Human hepatocytes (typically cryopreserved) are incubated in an appropriate buffer system (e.g. Dulbecco's modified eagle medium plus 3.5 μg glucagon/500 mL, 2.5 mg insulin/500 mL and 3.75 mg/500 mL hydrocortison) containing 5% species serum.
Following a (typically) 30 min preincubation in an incubator (37° C., 10% CO2) 5 μl of the solution of the compound to be tested ([…]; from 2 mM in DMSO stock solution diluted 1:25 with medium) are added into 395 μl hepatocyte suspension (cell density is in the range of 0.25-5 Mio cells/mL, typically 1 Mio cells/mL; the final concentration of the compound in question is […], the final DMSO concentration is 0.05%).
The cells are incubated for six hours (incubator, orbital shaker) and samples (25 μl) are taken at 0, 0.5, 1, 2, 4 and 6 hours. Samples are transferred into acetonitrile and pelleted by centrifugation (5 min). The supernatant is transferred to a new 96-deepwell plate, evaporated under nitrogen and resuspended.
The decline of the compound to be tested is analyzed by HPLC-MS/MS.
CLint is calculated as follows CL_INTRINSIC=Dose/AUC=(C0/CD)/(AUD+clast/k)×1000/60.
C0: initial concentration in the incubation [μM], CD: cell density of vital cells [10^6 cells/mL], AUD: area under the data [μM×h], clast: concentration of last data point [μM], k: slope of the regression line for the compound in question decline [h−1].
The calculated in vitro hepatic intrinsic clearance can be scaled up to the intrinsic in vivo hepatic Clearance and used to predict hepatic in vivo blood clearance (CL) by the use of a liver model (well stirred model). CL_INTRINSIC_INVIVO [ml/min/kg]=(CL_INTRINSIC [μL/min/10^6cells]×hepatocellularity[10^6 cells/g liver]×liver factor [g/kg bodyweight])/1000 CL [ml/min/kg]=CL_INTRINSIC_INVIVO [ml/min/kg]×hepatic blood flow [ml/min/kg]/(CL_INTRINSIC_INVIVO [ml/min/kg]+hepatic blood flow [ml/min/kg]) Qh[%]=CL [ml/min/kg]/hepatic blood flow [ml/min/kg]) […]
Hepatocellularity, human: 120×10^6 cells/g liver
Liver factor, human: 25.7 g/kg bodyweight
Blood flow, human: 21 ml/(min×kg)
A satisfying human hepatocyte stability for a compound in question measured by this assay is represented by a Qh<20% (whereby the stability is better, the lower the Qh-value is).

Setting [2] is: whole blood, DNP/anti-DNP stimulated basophils, read-out: CD63 assay EC50-value (chapter 5.2).

16 molecules from patent publication US10155751B2, “Pyrazolyl-substituted heteroaryls and their use as medicaments” (Boehringer Ingelheim International GmbH, priority 2015, dated 2018) can be followed below.

For orientation: EC50 means the concentration at which the effect is half-maximal.

Where two headings read alike, the source gives them in different places.

Turning to `C[C@@H](Oc1cc(-c2cnn(C3CCC(F)(F)C3)c2)cc2nn(C)c(F)c12)[C@H]1CNC(=O)C1` (some centres unmarked) [Example 7], the concentration for a half-maximal effect (EC50) in data set [1] (setting [2]) was 53 nM. The “stability in human hepatocytes (chapter 5.7) HEPhu” value (shortened to “stability in human hepatocytes”) in the data set with human hepatocytes is listed as below 4 % Qh.

`Cc1c2c(O[C@H](C)[C@H]3CNC(=O)C3)cc(-c3cnn([C@@H]4CCOC(C)(C)C4)c3)cc2nn1C` [Example 9, (R)-4-((R)-1-{6-[1-((R)-2,2-Dimethyl-tetrahydro-pyran-4-yl)-1H-pyrazol-4-yl]-2,3-dimethyl-2H-indazol-4-yloxy}-ethyl)-pyrrolidin-2-one]: the EC50 in data set [1] (setting [2]) was 52 nM. Further, the “stability in human hepatocytes” value in the data set on human hepatocytes is given as 6 % Qh.

Consider `CC(C)n1cc(-c2cc(O[C@H](C)[C@H]3CNC(=O)C3)c3c(F)n(C)nc3c2)cn1` [Example 2, (R)-4-{(R)-1-[3-Fluoro-6-(1-isopropyl-1H-pyrazol-4-yl)-2-methyl-2H-indazol-4-yloxy]-ethyl}-pyrrolidin-2-one], for which the EC50 in data set [1] (setting [2]) is 45 nM. In addition, the “stability in human hepatocytes” value in the data set with human hepatocytes is recorded as below 4 % Qh.

Regarding `C[C@@H](Oc1nc(-c2cnn(C(C)(C)C)c2)cc2ncn(C)c12)[C@H]1CNC(=O)C1` [example 3A.02, on page 196 of WO15017610, reference compound], the concentration giving a half-maximal response (EC50) in data set [1] (read-out: EC50 in CD63-assay) is below 150 nM; in data set [1] (setting [2]) it was 42 nM. The “stability in human hepatocytes” value in the data set on human hepatocytes came out at 7 % Qh.

For the molecule `Cc1c2c(O[C@H](C)[C@H]3CNC(=O)C3)cc(-c3cnn(C(C)(C)C)c3)cc2nn1C` [Example 13, (R)-4-{(R)-1-[6-(1-tert-Butyl-1H-pyrazol-4-yl)-2,3-dimethyl-2H-indazol-4-yloxy]-ethyl}-pyrrolidin-2-one], the concentration giving a half-maximal response (EC50) in data set [1] (setting [2]) was 58 nM. For the same molecule, the “stability in human hepatocytes” value in the data set on human hepatocytes was found to be 3 % Qh.

For `Cc1c2c(O[C@H](C)[C@H]3CNC(=O)C3)cc(-c3cnn([C@H]4CO[C@@H]5CCCO[C@@H]54)c3)cc2nn1C` [Example 10, 4-(1-{6-[(R)-(3S,3aR,7aR)-1-(Hexahydro-furo[3,2-b]pyran-3-yl)-1H-pyrazol-4-yl]-2,3-dimethyl-2H-indazol-4-yloxy}-ethyl)-pyrrolidin-2-one], the EC50 in data set [1] (setting [2]) was 65 nM. Also, the “stability in human hepatocytes” value in the data set on human hepatocytes was found to be 9 % Qh.

Take `Cc1c2c(O[C@H](C)[C@H]3CNC(=O)C3)cc(-c3cnn(C4CCC4)c3)cc2nn1C` [Example 21, (R)-4-{(R)-1-[6-(1-Cyclobutyl-1H-pyrazol-4-yl)-2,3-dimethyl-2H-indazol-4-yloxy]-ethyl}-pyrrolidin-2-one]: the EC50 in data set [1] (setting [2]) worked out at 76 nM. Besides, the “stability in human hepatocytes” value in the data set with human hepatocytes was found to be 7 % Qh.

Take `Cc1c2c(O[C@H](C)[C@H]3CNC(=O)C3)cc(-c3cnn(CCF)c3)cc2nn1C` [Example 11, (R)-4-((R)-1-{6-[1-(2-Fluoro-ethyl)-1H-pyrazol-4-yl]-2,3-dimethyl-2H-indazol-4-yloxy}-ethyl)-pyrrolidin-2-one]: in data set [1] (setting [2]), the concentration giving a half-maximal response (EC50) is 65 nM. Besides, the “stability in human hepatocytes” value with human hepatocytes is on record as 4 % Qh.

As for `C[C@@H](Oc1cc(-c2cnn(CCC(F)(F)F)c2)cc2nn(C)c(F)c12)[C@H]1CNC(=O)C1` [Example 12, (R)-4-((R)-1-{3-Fluoro-2-methyl-6-[1-(3,3,3-trifluoro-propyl)-1H-pyrazol-4-yl]-2H-indazol-4-yloxy}-ethyl)-pyrrolidin-2-one], in data set [1] (setting [2]), the 50% effective concentration (EC50) was found to be 67 nM. Besides, the “stability in human hepatocytes” value in the data set with human hepatocytes was below 4 % Qh.

Turning to `Cc1c2c(O[C@H](C)[C@H]3CNC(=O)C3)cc(-c3cnn(C(C)C)c3)cc2nn1C` [Example 18, (R)-4-{(R)-1-[6-(1-Isopropyl-1H-pyrazol-4-yl)-2,3-dimethyl-2H-indazol-4-yloxy]-ethyl}-pyrrolidin-2-one], in data set [1] (setting [2]), the EC50 turned out to be 95 nM. In the data set with human hepatocytes, the “stability in human hepatocytes” value is below 4 % Qh.

On to `Cc1c2c(O[C@H](C)[C@H]3CNC(=O)O3)nc(-c3cnn(C(C)(C)C)c3)cc2nn1C` [Example 3, (R)-5-{(R)-1-[6-(1-tert-Butyl-1H-pyrazol-4-yl)-2,3-dimethyl-2H-pyrazolo[4,3-c]pyridin-4-yloxy]-ethyl}-oxazolidin-2-one], for which the EC50 in data set [1] (setting [2]) is 51 nM. Besides, in the data set with human hepatocytes, the “stability in human hepatocytes” value was 7 % Qh.

As to `Cc1c2c(O[C@H](C)[C@H]3CNC(=O)C3)cc(-c3cnn(C4CC(C)(C)OC4(C)C)c3)cc2nn1C` (stereo partly drawn) [Example 16, (R)-4-((R)-1-{2,3-Dimethyl-6-[1-(2,2,5,5-tetramethyl-tetrahydro-furan-3-yl)-1H-pyrazol-4-yl]2H-indazol-4-yloxy}-ethyl)-pyrrolidin-2-one], the EC50 in data set [1] (setting [2]) was 82 nM. Besides, the “stability in human hepatocytes” value with human hepatocytes worked out at 6 % Qh.

Consider `Cc1c2c(O[C@H](C)[C@H]3CNC(=O)C3)cc(-c3cnn(C4CC4)c3)cc2nn1C` [Example 20, (R)-4-{(R)-1-[6-(1-Cyclopropyl-1H-pyrazol-4-yl)-2,3-dimethyl-2H-indazol-4-yloxy]-ethyl}-pyrrolidin-2-one], for which the EC50 in data set [1] (setting [2]) amounted to 134 nM. The “stability in human hepatocytes” value with human hepatocytes is recorded as below 4 % Qh.

In the case of `C[C@@H](Oc1cc(-c2cnn(C3CC3)c2)cc2nn(C)c(F)c12)[C@H]1CNC(=O)C1` [Example 5, (R)-4-{(R)-1-[6-(1-Cycloprop-yl-1H-pyrazol-4-yl)-3-fluoro-2-methyl-2H-indazol-4-yloxy]-ethyl}-pyrrolidin-2-one], in data set [1] (setting [2]), the EC50 was 52 nM. Further, the “stability in human hepatocytes” value in the data set with human hepatocytes is listed as below 4 % Qh.

For the molecule `Cc1cnn2cc(-c3cnn(C(C)(C)C)c3)nc(O[C@H](C)[C@H]3CNC(=O)C3)c12` [example 5.20 on page 506 of WO15017610, reference compound], the EC50 in data set [1] (read-out: EC50 in CD63-assay) was below 150 nM; in data set [1] (setting [2]) it was 77 nM. In the data set with human hepatocytes, the “stability in human hepatocytes” value was determined as 31 % Qh.

For `Cc1cc2c(O[C@H](C)[C@H]3CNC(=O)C3)cc(-c3cnn(C(C)(C)C)c3)cn2n1` [example 6.60 on page 587 of WO15017610, reference compound], the EC50 in data set [1] (read-out: EC50 in CD63-assay) and in data set [1] (setting [2]) was 483 nM each time. Moreover, in the data set with human hepatocytes, the “stability in human hepatocytes” value was below 4 % Qh.
